Results as given in US20250197424A1, “QUINOLINE COMPOUND AND USE THEREOF” (SHANGHAI PHARMACEUTICALS HOLDING CO., LTD., priority 2022, published 2025).
Structures can show the parent of a compound that is named as a salt. Where two headings read alike, the source gives them in different places. Marks after values point to notes of the source that are not given here.

Key:
GTP-KRAS-WT:SOS1 = GTP-KRAS-WT:SOS1 (Homo sapiens (Human), UniProt P01116); assay: KRAS_WT and SOS1 binding inhibition (KRAS-WT/SOS1 binding kit, 665/615 ratio); conditions: GTP 10 μM
Source text: To detect the inhibitory capability of small molecule compounds on the binding activity between KRAS_WT and SOS1 using a drug screening system based on the binding of KRAS_WT and SOS1 interaction.
a) BI-2852 was used as a positive control, with its stock solution as the first dilution point, followed by a 3-fold dilution, making a total of 10+0 dilutions. Similarly, the first dilution point of the test compounds was also their respective stock solutions, followed by a 3-fold dilution, making a total of 11+0 dilutions. Using Echo, 0.2 μL of the gradient-diluted compound solutions were transferred into a 384-well plate, with each compound tested in duplicate. The final DMSO concentration was 1%. The plate was centrifuged at 1000 rpm for 1 minute. The final concentrations of the positive controls were 100, 33.33, 11.11, 3.70, 1.23, 0.412, 0.137, 0.046, 0.015, 0.005, and 0 μM. The final concentrations of the test compounds were […], 0.01, and 0 μM.
b) KRAS_WT from the kit was prepared with GTP at a final concentration of 10 μM in the dilution buffer, and 5 μL was transferred into the 384-well reaction plate. The plate was centrifuged at 1000 rpm for 1 minute.
c) Subsequently, 5 μL of the SOS1 mixture was transferred into the 384-well reaction plate. The plate was centrifuged at 1000 rpm for 1 minute and incubated at 25° C. for 15 minutes.
d) 10 μL of the detection mixture was transferred into the 384-well reaction plate. The plate was centrifuged at 1000 rpm for 1 minute and incubated overnight at 4° C.
e) The […] and emission wavelength at 615 nm were read using an Envision multimode plate reader. The 665/615 ratio signal intensity was used to characterize the enzyme activity.
(§1) The IC50 of the compounds was fitted using a nonlinear regression equation with GraphPad Prism 8. The results are presented in Table 2: • Negative control: DMSO • Positive control: 100 μM BI-2852
(§2) The following nonlinear fitting formula was used to obtain the IC50 (half-maximal inhibitory concentration) of the compounds:
(§3) [formula] • X: logarithm of the compound concentration • Y: 665/615 Ratio

GTP-KRAS-G12D:SOS1 = GTP-KRAS-G12D:SOS1 (Homo sapiens (Human), UniProt P01116, G12D); assay: GTP-KRAS-G12D:SOS1 binding inhibition
Description: as §1, §2, §3

GTP-KRAS-G12D:CRAF = GTP-KRAS-G12D:CRAF (Homo sapiens (Human), UniProt P01116, G12D); assay: GTP-KRAS-G12D:CRAF binding inhibition
Description: The IC50 of the compounds was fitted using a nonlinear regression equation with GraphPad Prism 8. The results are presented in Table 2: • Negative control: DMSO • Positive control: 100 μM BI-2852 The following nonlinear fitting formula was used to obtain the IC50 (half-maximal inhibitory concentration) of the compounds: [formula] • X: logarithm of the compound concentration • Y: 665/615 Ratio

[1] = In vivo bioavailability experiment in mice (pharmacokinetics); conditions: ICR mice; for clearance / half-life / MRT / Vd / bioavailability: mouse, plasma; for MRT: read-out: Mean residence time; for Vd: read-out: Steady-state volume of distribution
Description: Experimental Animals: ICR mice, weighing 20 grams, provided by Sino-British SIPPR Lab Animal Ltd, Shanghai. The compound to be tested was accurately weighed and dissolved in DMSO to prepare a stock solution with a concentration of 15 mg/mL. The compound stock solution was accurately measured and diluted with 0.9% saline and Solutol in a ratio of 8.8:1 to a concentration of 0.3 mg/mL. The solution was clear and transparent, used for intravenous administration. Additionally, the compound was accurately weighed and mixed with 0.5% CMC-Na to a concentration of 0.5 mg/mL, used for oral gavage administration. Intravenous group: Three ICR mice, weighing 20 g+2 g, were intravenously administered the intravenous dosing solution. The dosing volume was 10 mL/kg, with a dose of 3 mg/kg. Blood samples (0.03 mL) were collected from the fundus vein of the mice at pre-dose and at 2, 15, 30, 60, 120, 240, 480, and 1440 minutes post-dose. Oral gavage group: Three ICR mice, weighing 20 g+2 g, were administered the oral gavage dosing solution. The dosing volume was 20 mL/kg, with doses of 10 mg/kg and 30 mg/kg. Blood samples (0.03 mL) were collected from the fundus vein of the mice at pre-dose and at 5, 15, 30, 60, 120, 240, 480, and 1440 minutes post-dose. The blood samples were centrifuged at 6800 g for 6 minutes at 2-8° C. The plasma was collected and stored in centrifuge tubes at -70° C. for later analysis. A 19 μL aliquot of blank mouse plasma was taken, and 1 μL of the standard curve working solution was added to prepare a series of concentration samples at 1, 0.5, 0.2, 0.1, 0.05, 0.01, 0.005, and 0.001 μg/mL. The mixture was vortexed and mixed well, and 400 μL of methanol containing an internal standard (Warfarin, 100 ng/mL) was added to precipitate the proteins. The mixture was vortexed and shaken for 1 minute, centrifuged at 18000 g for 7 minutes at 4° C., and the supernatant was transferred to a 96-well plate for injection. A 20 μL aliquot of the plasma sample was mixed with 400 μL of methanol containing an internal standard (Warfarin, 100 ng/mL) to precipitate the proteins. The mixture was vortexed for 10 minutes, centrifuged at 18000 g for 7 minutes at 4° C., and 400 μL of the supernatant was transferred to a 96-well plate for a 10 μL injection. Liquid chromatography system: Acquity UPLC system (including a binary solvent manager, sample manager, column heater, and degasser) from Waters Corporation, USA. MS/MS system: QTRAP® 6500+ triple quadrupole mass spectrometer equipped with an electrospray ionization (ESI) source from Sciex Corporation, USA. Analytical column: BEH C18 column, 1.7 μm, 50×2.1 mm I.D., from Waters Corporation, USA. Flow rate: 0.60 mL/min; injection volume: 10 μL; column temperature: 40° C. The gradient elution program used was as follows: The ion source was an electrospray ionization source (Turbo Ionspray, ESI); the ion spray voltage was […]; the temperature was 500° C.; the ion source gas 1 (N2) pressure was 50 psi; the ion source gas 2 (N2) pressure was 50 psi; the curtain gas (N2) pressure was 20 psi; the collision gas pressure (CAD) was Medium; detection was performed in positive ion mode; the scan type was multiple reaction monitoring (MRM).

[2] = intravenous injection, dose 3 (3 mg/kg in method)
[3] = oral, dose 30 (30 mg/kg in method)

Compound | IC50 (GTP-KRAS-WT:SOS1; dihydrochloride) [nM] | IC50 (GTP-KRAS-G12D:SOS1; dihydrochloride) [nM] | IC50 (GTP-KRAS-G12D:CRAF; dihydrochloride) [nM] | IC50 (GTP-KRAS-G12D:SOS1) [nM] | Area under curve [1, 2] | Maximum plasma concentration [1, 2] [ng/mL] | Area under curve [1, 3] | Maximum plasma concentration [1, 3] [ng/mL] | clearance [1, 2] [mL/min/kg] | half-life [1, 2] [h] | MRT [1, 2] [h] | Vd [1, 2] [L/kg] | bioavailability [1, 3] [%] | half-life [1, 3] [h] | MRT [1, 3] [h] | IC50 (GTP-KRAS-WT:SOS1) [nM] | IC50 (GTP-KRAS-G12D:CRAF) [nM]
CC1CC2(CCc3c(nc(OC[C@@]45CCCN4C[C@H](F)C5)nc3N3C[C@H]4CC[C@@H](C3)N4)C2)c2cc(O)cc(Cl)c21 (single isomer, unassigned) [Compound 7ab, (1R or 1S, 3S or 3R)-4′-((1R,5S)-3,8-diazabicyclo[3.2.1]octan-3-yl)-4-chloro-2′-(((2R,7aS)-2-fluorotetrahydro-1H-pyrrolizin-7a(5H)-yl)methoxy)-3-methyl-2,3,5′,8′-tetrahydro-6′H-spiro[indene-1,7′-quinazolin]-6-ol dihydrochloride] | 582 | 17.4 | 84.8 | – | – | – | – | – | – | – | – | – | – | – | – | – | –
CCc1cccc2cc(O)cc(-c3c(F)c4c5c(nc(OC[C@@]67CCCN6C[C@H](F)C7)nc5c3F)N3CC5CCC(N5)C3CCO4)c12 (single isomer, unassigned) [13a′, 4-((2S or 2R,6aS,7S,10R)-1,3-Difluoro-14-(((2R,7aS)-2-fluorotetrahydro-1H-pyrrolizin-7a(5H)-yl)methoxy)-5,6,6a,7,8,9,10,11-octahydro-7,10-epiminoazepino[1′,2′: 5,6][1,5]oxazocino[4,3,2-de]quinazolin-2-yl)-5-ethylnaphthalen-2-ol] | – | – | – | 28.2 | 2062.35 (h) * (ng/mL) | 3563.93 | 3091.66 (h) * (ng/mL) | 781.43 | 6.5 | 15.9 | 4.73 | 5.33 | 15 | 4.68 | 4.53 | – | –
CCc1cccc2cc(O)cc(-c3c(F)c4c5c(nc(OC[C@]67C[C@@H](F)CN6C[C@@H](CN6C[C@@H](C)O[C@@H](C)C6)C7)nc5c3F)N3CC5CCC(N5)C3CO4)c12 (single isomer, unassigned) [Compound 25b, 4-((2S or 2R)-13-(((2R,6R,7aS)-2-(((2R,6S)-2,6-dimethylmorpholino)methyl)-6-fluorotetrahydro-1H-pyrrolizin-7a(5H)-yl)methoxy)-1,3-difluoro-5a,6,7,8,9,10-hexahydro-5H-6,9-epiminoazepino[2′,1′:3,4][1,4]oxazepino[5,6,7-de]quinazolin-2-yl)-5-ethylnaphthalen-2-ol trihydrochloride] | – | – | – | 6.72 | 7940.26 (h) * (ng/mL) | 22039.3 | 2365.19 (h) * (ng/mL) | 863.75 | 6.33 | 12.2 | 1.01 | 0.84 | 2.98 | 3.81 | 3.15 | – | –
Oc1cc(Cl)c2c(c1)C1(CC2)CCc2c(nc(OC[C@@]34CCCN3C[C@H](F)C4)nc2N2CC3CCC(C2)N3)C1 (single isomer, unassigned) [Compound 2a, (S or R)-4′-((1R,5S)-3,8-Diazabicyclo[3.2.1]octan-3-yl)-4-chloro-2′-((2R,7aS)-2-fluorotetrahydro-1H-pyrrolizin-7a(5H)-ylmethoxy)-2,3,5′,8′-tetrahydro-6′H-spiro[indene-1,7′-quinazolin]-6-ol dihydrochloride] | – | – | – | 16.7 | – | – | – | – | – | – | – | – | – | – | – | 254 | 32.5
Oc1cc(-c2cc3c4c(nc(OC[C@@]56CCCN5C[C@H](F)C6)nc4c2F)N2C[C@@H]4CC[C@@H](N4)[C@H]2CO3)c2ccccc2c1 [Compound 3, dihydrochloride] | – | – | – | 11.9 | – | – | – | – | – | – | – | – | – | – | – | 79.6 | 12.3
Oc1cc(Cl)c2c(c1)C1(CC2)CCc2c(nc(OC[C@@]34CCCN3C[C@H](F)C4)nc2N2CC3CCC(C2)N3)C1F (single isomer, unassigned) [Compound 8d, (1R or 1S, 8'S or 8′R)-4′-((1R,5S)-3,8-diazabicyclo[3.2.1]octan-3-yl)-4-chloro-8′-fluoro-2′-(((2R,7aS)-2-fluorotetrahydro-1H-pyrrolizin-7a(5H)-yl)methoxy)-2,3,5′,8′-tetrahydro-6′H-spiro[indene-1,7′-quinazolin]-6-ol dihydrochloride] | – | – | – | 115 | – | – | – | – | – | – | – | – | – | – | – | 4750 | 491
(R or S)-4-((5aS,6R,9S)-1,3-difluoro-13-((2R,7aS)-2-fluorotetrahydro-1H-pyrrolizin-7a(5H)-ylmethoxy)-5a,6,7,8,9,10-hexahydro-5H-6,9-epiminoazepino[2′,1′:3,4][1,4]oxazepino[5,6,7-de]quinazolin-2-yl)-5-ethynyl-6-fluoronaphthalen-2-ol [4b′] | – | – | – | 18.3 | – | – | – | – | – | – | – | – | – | – | – | 5.6 | 8.22
CCc1cccc2cc(O)cc(-c3c(F)c4c5c(nc(OC[C@]67C[C@@H](F)CN6C[C@@H](COC)C7)nc5c3F)N3CC5CCC(N5)C3CO4)c12 (single isomer, unassigned) [Compound 18b, 4-((2S or 2R,5aS,6S,9R)-1,3-difluoro-13-(((2R,6S,7aS)-2-fluoro-6-(methoxymethyl)tetrahydro-1H-pyrrolizin-7a(5H)-yl)methoxy)-5a,6,7,8,9,10-hexahydro-5H-6,9-epiminoazepino[2′,1′:3,4][1,4]oxazepino[5,6,7-de]quinazolin-2-yl)-5-ethylnaphthalen-2-ol dihydrochloride] | – | – | – | 7.5 | 1944.73 (h) * (ng/mL) | 7632.72 | 1904.95 (h) * (ng/mL) | 508.76 | 24.5 | 11.8 | 1.41 | 4.98 | 9.8 | 3.57 | 3.77 | – | –
